The values that follow come from PubChem BioAssay (NCI).

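96-well plates; 48 h exposure; 5 concentrations. Endpoints by linear interpolation between flanking doses. Not reached: highest tested concentration assigned. TGI is the concentration that stops growth completely.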

Some test systems named below: ACHN renal; CAKI-1 renal; EKVX NSCLC; IGROV1 ovarian; OVCAR-4 ovarian; RXF 393 renal; SF-539 CNS; SK-MEL-5 melanoma; SK-OV-3 ovarian; SNB-75 CNS.
Holding throughout (test): growth of human tumour cells (NCI), 48 h

Take `COc1ccc(/C=C2\CCC/C(=C\c3ccc(O)c(CN4CCCCC4)c3)C2=O)cc1`: the TGI with ACHN renal was above 82.7 µM; in the assay with CAKI-1 renal, above 74.6 µM; with EKVX NSCLC, 51.7 µM; in the assay with IGROV1 ovarian it was 41.5 µM; with OVCAR-4 ovarian, above 79.5 µM; in the assay with RXF 393 renal, 41 µM. Moreover, the TGI was 16.1 µM in the assay on SF-539 CNS, 39.5 µM in the assay on SK-MEL-5 melanoma, 40.7 µM in the assay on SK-OV-3 ovarian and above 71.8 µM with SNB-75 CNS.

Consider `CCOC(=O)C(=O)/C(=C/N1C(=O)CC(=O)NC1=S)C(=O)OCC`, for which the TGI in the assay with ACHN renal, with CAKI-1 renal, with EKVX NSCLC, in the assay with IGROV1 ovarian, with OVCAR-4 ovarian and in the assay on RXF 393 renal was above 100 µM each time. For the same compound, the TGI with SF-539 CNS, in the assay with SK-MEL-5 melanoma, in the assay on SK-OV-3 ovarian and in the assay with SNB-75 CNS was above 100 µM throughout.

`COc1ccc(C2CC3(c4ccccc4)ON=C(c4ccccc4)N3c3ccccc3S2)cc1` (stereo not given): the TGI in the assay on ACHN renal, with CAKI-1 renal, in the assay on EKVX NSCLC, in the assay on IGROV1 ovarian, with OVCAR-4 ovarian and with RXF 393 renal was above 100 µM in each case. Besides, the TGI in the assay with SF-539 CNS, in the assay on SK-MEL-5 melanoma, with SK-OV-3 ovarian and in the assay on SNB-75 CNS was above 100 µM throughout.

In the case of `COc1ccc2[nH]c3c(C)c4ccnc(NCCCN(C)CCCNc5ccc6ncn7c8ccccc8c(=O)c5c67)c4c(C)c3c2c1`, the TGI in the assay on ACHN renal turned out to be 0.918 µM; in the assay with CAKI-1 renal, 0.561 µM; with EKVX NSCLC, 2.48 µM; in the assay with IGROV1 ovarian, 1.32 µM; with OVCAR-4 ovarian it was 6.94 µM; with RXF 393 renal it was 0.623 µM. For the same compound, the TGI in the assay with SF-539 CNS came to 0.379 µM; with SK-MEL-5 melanoma it was 4.61 µM; in the assay on SK-OV-3 ovarian, 6.8 µM; in the assay on SNB-75 CNS, 7.38 µM.

In the case of `O=c1[nH]c(=O)n(C2OC(CO)C(O)C2O)cc1Oc1ccccc1` (stereo not given), the TGI in the assay with ACHN renal, in the assay on CAKI-1 renal, in the assay with EKVX NSCLC, in the assay on IGROV1 ovarian, in the assay on OVCAR-4 ovarian and in the assay with RXF 393 renal was above 100 µM in each case. Moreover, the TGI in the assay on SF-539 CNS, in the assay on SK-MEL-5 melanoma, in the assay with SK-OV-3 ovarian and with SNB-75 CNS was above 100 µM each time.

On to `CSc1ccc(/C=C2\N=C(c3ccccc3)N(c3nc4cc(C)c(C)cc4s3)C2=O)cc1`, for which the TGI was 58.6 µM in the assay on ACHN renal; above 100 µM with CAKI-1 renal; 85.9 µM in the assay with EKVX NSCLC; 81.4 µM with IGROV1 ovarian; above 100 µM in the assay with OVCAR-4 ovarian; 62.3 µM with RXF 393 renal. For the same compound, the TGI is 40.9 µM in the assay with SF-539 CNS, 84.5 µM with SK-MEL-5 melanoma, above 100 µM in the assay with SK-OV-3 ovarian and 55.2 µM with SNB-75 CNS.

On to `COc1cccc(N(CN2C(=O)CCC2C(=O)O)C(C)=O)c1` (stereo not given), for which the TGI in the assay on ACHN renal, in the assay with CAKI-1 renal, with EKVX NSCLC, in the assay with IGROV1 ovarian, in the assay with OVCAR-4 ovarian and with RXF 393 renal was above 100 µM each time. For the same compound, the TGI in the assay on SF-539 CNS, with SK-MEL-5 melanoma, in the assay with SK-OV-3 ovarian and with SNB-75 CNS was above 100 µM in each case.

As for `COC(=O)C1=C(C)C=C(N2CCOCC2)C(C(=O)OC)C1c1ccccc1` (stereo not given), the TGI with ACHN renal, with CAKI-1 renal, in the assay on EKVX NSCLC, in the assay with IGROV1 ovarian, in the assay on OVCAR-4 ovarian and in the assay on RXF 393 renal was above 10 µM throughout. Further, the TGI in the assay on SF-539 CNS, in the assay with SK-MEL-5 melanoma, in the assay on SK-OV-3 ovarian and in the assay with SNB-75 CNS was above 10 µM each time.

For `COC1OC(COC(=O)c2cc(O)c(O)c(O)c2)C(OC(=O)c2cc(O)c(O)c(O)c2)C(OC(=O)c2cc(O)c(O)c(O)c2)C1OC(=O)c1cc(O)c(O)c(O)c1` (stereo not given), the TGI in the assay on ACHN renal, in the assay on CAKI-1 renal, in the assay on EKVX NSCLC, in the assay with IGROV1 ovarian, in the assay on OVCAR-4 ovarian and with RXF 393 renal was above 100 µM throughout. Moreover, the TGI in the assay with SF-539 CNS was 37.1 µM; with SK-MEL-5 melanoma, above 100 µM; with SK-OV-3 ovarian, 54 µM; in the assay with SNB-75 CNS, above 100 µM.

In the case of `C[C@@H](NC(=O)c1ccc(CNC(=O)/C=C/c2cccc(Oc3ccccc3)c2)cc1)c1ccccc1`, the TGI in the assay with ACHN renal is 36 µM; in the assay with CAKI-1 renal, 44.2 µM; with EKVX NSCLC, above 65.8 µM; in the assay on IGROV1 ovarian, above 100 µM; in the assay with OVCAR-4 ovarian, above 100 µM; in the assay on RXF 393 renal, 12.2 µM. The TGI in the assay with SF-539 CNS is 30.6 µM; in the assay on SK-MEL-5 melanoma, above 100 µM; in the assay with SK-OV-3 ovarian, above 100 µM; in the assay on SNB-75 CNS it was 20.1 µM.

Turning to `O=C1C=CC(=O)c2c1ccc1c3ccccc3n(Cc3cccc([N+](=O)[O-])c3)c21`, the TGI with ACHN renal is 38 µM; with CAKI-1 renal, 31 µM; with EKVX NSCLC, above 100 µM; in the assay with IGROV1 ovarian, 54.7 µM; in the assay with OVCAR-4 ovarian, above 63.8 µM; with RXF 393 renal, 39.2 µM. For the same compound, the TGI with SF-539 CNS was above 80.6 µM; in the assay on SK-MEL-5 melanoma it was above 100 µM; in the assay with SK-OV-3 ovarian it was above 100 µM; with SNB-75 CNS it was above 100 µM.

`C=C(CN1CC2C[C@](C(=O)OC)(c3cc4ccccc4[nH]3)C1C(OC)C2OC)S(=O)(=O)c1ccccc1` (stereo not given in full): the TGI in the assay with ACHN renal was 9.24 µM; with CAKI-1 renal, 11.7 µM; in the assay with EKVX NSCLC, 13 µM; in the assay with IGROV1 ovarian it was 8.98 µM; in the assay on OVCAR-4 ovarian it was 12.5 µM; with RXF 393 renal, 10.1 µM. Further, the TGI in the assay on SF-539 CNS stood at 16.9 µM; in the assay with SK-MEL-5 melanoma it was 10.7 µM; in the assay with SK-OV-3 ovarian, 13.8 µM; in the assay with SNB-75 CNS, 11.6 µM.

Consider `C=C[C@]1(C)CCC2=C(CCC3C2(C)CCC[C@@]3(C)COC(C)=O)C1` (stereo not given in full), for which the TGI is 38.7 µM in the assay with ACHN renal; 37.6 µM in the assay with CAKI-1 renal; 36.8 µM with EKVX NSCLC; 38.1 µM in the assay with IGROV1 ovarian; above 100 µM in the assay on OVCAR-4 ovarian; 37.8 µM in the assay with RXF 393 renal. Further, the TGI was found to be 37.9 µM in the assay on SF-539 CNS, 31 µM with SK-MEL-5 melanoma, 33 µM in the assay on SK-OV-3 ovarian and 36.7 µM in the assay with SNB-75 CNS.
